In PubChem BioAssay AID2743 (NMMLSC, 2010) one finds GFP fluorescence (kMESF) data, which are given here for 79 compounds.

The source made the active and inactive calls.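 The calls were made as follows: active = fitted half-maximal concentration for change in GFP expression of 33 µM or less; inactive = the rest.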

The test in a line: potency of AGP1-GFP expression modulators in yeast, dose response, cell-based, flow cytometry, S. cerevisiae, MLPCN hits (AID 2743). Particulars: S. cerevisiae AGP1-GFP strain, flow cytometry GFP, 3 h; at 33 µM (top of the series). Background: In flow cytometry, cells or beads pass a laser one at a time.

With `O=C(c1ccc(Cl)cc1)N1CCN(c2cccc3[nH]ccc23)CC1`, the GFP fluorescence (kMESF) is 46.1 kMESF (inactive). On to `O=C(c1ccc([N+](=O)[O-])o1)N1CCN(c2nc3c(F)cc(F)cc3s2)CC1`, for which the GFP fluorescence (kMESF) is 30.3 kMESF (inactive).

In the case of `Cc1ccc(C)c(/C=C/C(=O)c2ccccc(=O)c2O)c1`, the GFP fluorescence (kMESF) was 10.5 kMESF (inactive).

For `COc1cc(/C=C2/C(=O)c3cccc([N+](=O)[O-])c3C2=O)c(Br)cc1O`, the GFP fluorescence (kMESF) was 32.9 kMESF (inactive). Consider `O=C(O)c1ccccc1SC1CC(=O)N(c2ccc3c(c2)OCO3)C1=O` (centres undefined), for which the GFP fluorescence (kMESF) was 47.9 kMESF (inactive).

For the compound `CCc1ccc(/C=C/C(=O)c2cc(Br)ccc(=O)c2O)cc1`, the GFP fluorescence (kMESF) is 22.2 kMESF (inactive). In the case of `CC(C)[C@@]1(c2ccc(Cl)cc2)ON(c2ccccc2C(F)(F)F)C1=O`, the GFP fluorescence (kMESF) was 40.5 kMESF (inactive). To `CCN(CC(=O)NC(C)(C)C)C(=O)COc1c(Cl)cc(Cl)c2ccc(C)nc12` belongs 35.5 kMESF (inactive).

For the compound `CC(C)(C)c1ccc(NC(=O)COC(=O)c2ccc([N+](=O)[O-])s2)cc1`, the GFP fluorescence (kMESF) is 14.7 kMESF (inactive). Take `C=CCOc1ccc(C(=O)/C=C2/C(=O)Nc3ccccc32)cc1`: the GFP fluorescence (kMESF) was 46.5 kMESF (inactive).

With `O=C1C=C(Nc2ccc(Cl)cc2)C(=O)N1c1ccc(Cl)cc1`, the GFP fluorescence (kMESF) was 37.8 kMESF (inactive).

Turning to `O=C1NC(=O)N(c2ccccc2)C(=O)/C1=C/c1ccc(Sc2ccccc2)o1`, the GFP fluorescence (kMESF) is 35.9 kMESF (inactive). For `O=C(c1ccccc1)c1ccccc1N1C(=O)C=CC1=O` the value was 38 kMESF (inactive); for `CCc1ccc(OCC(=O)NNC(=S)NC(=O)C2CC2)c(Br)c1`, 45.2 kMESF (inactive). On to `CN(C)C(=O)Oc1ccnc2cc(Cl)ccc12`, for which the GFP fluorescence (kMESF) is 42.3 kMESF (inactive). On to `Cc1cccc(/C=C/C(=O)c2ccc([N+](=O)[O-])o2)c1`, for which the GFP fluorescence (kMESF) was 19.2 kMESF (inactive). With `CCN1/C(=C/c2ccc3cc(C)ccc3[n+]2CC)Sc2ccc3sccc3c21`, the GFP fluorescence (kMESF) was 43.3 kMESF (inactive).

Consider `COc1cccc2c(=O)c(C(=O)NCc3cccs3)c[nH]c12`, for which the GFP fluorescence (kMESF) is 35.4 kMESF (inactive). Take `CCC(=O)Nc1ccc(NC(=O)c2cc3ccccc3o2)c(OC)c1`: the GFP fluorescence (kMESF) was 44.6 kMESF (inactive).

Take `COc1ccc2c(c1)c(/C=C/c1cc[n+](C)cc1)cn2C`: the GFP fluorescence (kMESF) is 46.7 kMESF (inactive).

Consider `O=C(Nc1ccc(NC(=O)c2cc3ccccc3o2)cc1)c1ccc2c(c1)OCCO2`, for which the GFP fluorescence (kMESF) is 42.8 kMESF (inactive).

For the compound `Cc1ccccc1C(=O)NNC(=S)NC(=O)c1ccc(Cl)cc1Cl`, the GFP fluorescence (kMESF) was 40.9 kMESF (inactive).

Consider `CC1(C(=O)NC(=S)NNC(=O)c2ccncc2)CCCCC1`, for which the GFP fluorescence (kMESF) was 34.2 kMESF (inactive).

Turning to `CN1CCN(C(c2ccc(C(F)(F)F)cc2)c2ccc3cccnc3c2O)CC1` (centres undefined), the GFP fluorescence (kMESF) is 34 kMESF (inactive). As to `CCOC(=O)CSC1=NC(=O)/C(=C/c2ccc(OC)cc2)S1`, the GFP fluorescence (kMESF) was 43.4 kMESF (inactive). Consider `O=C(Nc1nnc(-c2ccc(F)cc2)o1)c1cccc([N+](=O)[O-])c1`, for which the GFP fluorescence (kMESF) was 44.5 kMESF (inactive).

As for `Cc1ccc(C(=O)Oc2oc(-c3ccccc3)nc2C=Nc2ccc(N(C)C)cc2)cc1`, the GFP fluorescence (kMESF) was 39.3 kMESF (inactive).

For `CC(Oc1ccc(Cl)cc1)C(=O)NNC(=S)NC(=O)c1ccco1` (centres undefined), the GFP fluorescence (kMESF) was 34.2 kMESF (inactive). Take `Oc1c(C(Nc2cccc(C(F)(F)F)c2)c2ccncc2)ccc2cccnc12` (centres undefined): the GFP fluorescence (kMESF) is 30.3 kMESF (inactive).

For the compound `C=C1C(O)[C@@H]2O[C@]3(CC[C@H](/C=C/C(C)[C@@H]4CC(C)=CC5(O[C@H](C[C@@](C)(O)C(=O)O)CCC5O)O4)O3)CC[C@H]2O[C@@H]1C(O)CC(C)[C@H]1OC2(CCCCO2)CCC1C` (some centres undefined), the GFP fluorescence (kMESF) was 35.8 kMESF (inactive). For `Cc1ccsc1/C=N/Nc1ncc(Cl)cc1Cl` the value was 36 kMESF (inactive); for `CC1=NNC(=O)/C1=C\c1cn(-c2ccccc2)nc1-c1ccccc1`, 40.4 kMESF (inactive); for `COc1ccc(N=Nc2ccc(O)c3ncccc23)cc1`, 40.8 kMESF (inactive). To `O=C(O)c1cc[c]([Hg][Cl])cc1` belongs 32.1 kMESF (inactive); to `ClC(Cl)(c1nnnn1-c1ccccc1)c1nnnn1-c1ccccc1`, 35.1 kMESF (inactive); to `O=C1C=CC(=O)N1c1ccc(O)cc1`, 48.3 kMESF (inactive). To `CCOC(=O)c1cc(-c2ccc(/C=C3/C(=O)NC(=O)C(C#N)=C3C)o2)ccc1Cl` belongs 28.2 kMESF (inactive); to `CSc1nnc2c3cc(F)ccc3n(C)c2n1`, 25.3 kMESF (inactive); to `O=C1c2sc3nc4ccccc4n3c2C(=O)N1c1ccccc1Cl`, 23.1 kMESF (inactive). For the compound `O=[N+]([O-])c1cnc(Sc2ccncn2)s1`, the GFP fluorescence (kMESF) was 33.9 kMESF (inactive). Consider `CCCc1cc(=O)oc2cc(C)cc(OCC(=O)NC3CC3)c12`, for which the GFP fluorescence (kMESF) was 41 kMESF (inactive). To `COc1ccc(N2CCN(C(=O)c3ccccc3)CC2)c([N+](=O)[O-])c1` belongs 40.6 kMESF (inactive); to `COc1ccc(CCNC2=C(Cl)C(=O)N(CCc3ccccc3)C2=O)cc1OC`, 42 kMESF (inactive); to `O=C(/C=C/c1ccccn1)c1cc(Br)ccc1O`, 37.3 kMESF (inactive). To `CCCCC(=O)NNC(=S)NC(=O)c1ccc(C)cc1` belongs 58.2 kMESF (inactive); to `Cc1ccc(S(=O)(=O)N2CCCC2C(=O)NCc2ccncc2)cc1` (centres undefined), 32.1 kMESF (inactive); to `Cc1ccc(-c2nc(C)sc2CC(=O)Nc2nnc(C)s2)cc1`, 34.5 kMESF (inactive). With `Cc1cc(O)c(C(=O)/C=C/c2c(F)c(F)c(F)c(F)c2F)c(=O)o1`, the GFP fluorescence (kMESF) is 21.2 kMESF (inactive). `O=S1(=O)C=C(Sc2nc3ccccc3s2)c2ccccc21`: the GFP fluorescence (kMESF) was 34.3 kMESF (inactive).

With `O=C1c2ccccc2C(=O)N1OS(=O)(=O)c1ccccc1`, the GFP fluorescence (kMESF) is 29.6 kMESF (inactive). For the compound `Cc1ccc(/C=C2/SC(=S)N(C3CCCCC3)C2=O)o1`, the GFP fluorescence (kMESF) was 41.3 kMESF (inactive). `Cc1ccc(C(=O)/C=C/C(=O)c2ccc(C)cc2)cc1`: the GFP fluorescence (kMESF) was 43.8 kMESF (inactive). For the compound `COc1ccc(-c2cc3nc4n(c(=O)c3s2)CCC4)cc1`, the GFP fluorescence (kMESF) is 23.3 kMESF (inactive). For `CN(C)c1ccc(N=Cc2nc(-c3ccccc3)oc2OC(=O)c2ccccc2)cc1` the value was 43 kMESF (inactive).

For the compound `O=C(C#Cc1ccccc1)c1ccco1`, the GFP fluorescence (kMESF) is 29.7 kMESF (inactive). To `O=c1/c(=C/c2cccc3ccccc23)sc2ncnn12` belongs 36.7 kMESF (inactive); to `CC(=O)Oc1oc(-c2ccccc2)nc1C=Nc1ccc(N(C)C)cc1`, 43.2 kMESF (inactive); to `C#CCOCCOCCOCCNc1nc(N2CCN(C(=O)CCCCCCCCCCNC(=O)[C@H](CCCCN)n3cc(CCO)nn3)CC2)nc(N2CCN(C(=O)CCCCCCCCCCNC(=O)[C@H](CCCCN)n3cc(C[C@@H](C)CC)nn3)CC2)n1`, 51.4 kMESF (inactive). For `COCCN1C(=O)/C(=C/c2ccc(N3CCCC3)cc2C)SC1=S` the value was 44.5 kMESF (inactive). `O=C(CSC1=NS(=O)(=O)c2ccccc21)Nc1ccccc1`: the GFP fluorescence (kMESF) was 27.1 kMESF (inactive). For `CCc1nc2ccccc2c(=O)n1NC(=O)c1c(O)c2cccc3c2n(c1=O)CCC3`, the GFP fluorescence (kMESF) was 18.3 kMESF (inactive). To `Cn1c(=O)c(C(=O)NNC(=O)c2ccc(Br)cc2)c(O)c2ccccc21` belongs 26.2 kMESF (inactive); to `Cc1ccc2c(c1)c(/C=C/c1cc[n+](C)cc1)c(C)n2C`, 48.2 kMESF (inactive); to `Fc1cccc(Nc2ncnc3c2cnn3-c2ccccc2)c1`, 37 kMESF (inactive).

Turning to `COc1ccc(N2C(=O)C(Cl)=C(Nc3c(C)n(C)n(-c4ccccc4)c3=O)C2=O)cc1`, the GFP fluorescence (kMESF) was 36.2 kMESF (inactive).

With `Cc1ccc(C(=O)Sc2cccccc2=O)cc1`, the GFP fluorescence (kMESF) was 33 kMESF (inactive). For `Cc1c(NC2=C(Cl)C(=O)N(c3ccccc3)C2=O)c(=O)n(-c2ccccc2)n1C`, the GFP fluorescence (kMESF) is 41.3 kMESF (inactive). `COc1cc(N=c2ssnc2Cl)cc(OC)c1`: the GFP fluorescence (kMESF) was 38.8 kMESF (inactive). For `O=C(NCc1ccc2c(c1)OCO2)c1nc(S(=O)(=O)Cc2ccccc2)ncc1Cl` the value was 40.9 kMESF (inactive). For `CN1C(=O)/C(=N\OC(=O)c2cccc3ccccc23)c2ccccc21` the value was 38.2 kMESF (inactive); for `Cc1ccc(O)c(N=Nc2nccs2)c1`, 30.4 kMESF (inactive); for `COC(=O)c1cc(N2C(=O)C3C(C2=O)C2(C)C=CC3(C)O2)ccc1Cl` (centres undefined), 47.1 kMESF (inactive). To `Cc1cccc(N=C2NC(=O)/C(=C/C=C/c3ccco3)S2)c1C` belongs 23.3 kMESF (inactive); to `Cc1ccc(C(=O)O)cc1N=Cc1cc(Br)cc(Br)c1O`, 27.3 kMESF (inactive); to `CCOC(=O)c1c(C)oc2c1c(C(c1ccncc1)N1CCOCC1)c(O)c1ccccc12` (centres undefined), 21.4 kMESF (inactive). In the case of `COc1ccccc1NC1=C(Cl)C(=O)N(c2ccccc2)C1=O`, the GFP fluorescence (kMESF) was 33 kMESF (inactive). With `O=C1NC(=S)NC(=O)C1=Cc1ccc2c(c1)CCN2CCCCl`, the GFP fluorescence (kMESF) was 35 kMESF (inactive). To `Cc1ccc(/C=N/Nc2ncc(Cl)cc2Cl)s1` belongs 35.6 kMESF (inactive); to `Cc1ccc(NC(=O)c2nc(S(=O)(=O)Cc3ccccc3)ncc2Cl)cc1`, 45.8 kMESF (inactive).
